# Source: patent publication US9408926B2, “KDR and VEGF/KDR binding peptides and their use in diagnosis and therapy” (Bracco Suisse S.A., priority 2002, dated 2016)
# Assays:
# [1] = test system: VEGF-induced migration of HUVECs; assay: VEGF-induced HUVEC migration assay; type: cell-based, human
# Protocol: After 22 hours, quantitation of cell migration/invasion was achieved by post-labeling cells in the insert plates with a fluorescent dye and measuring the fluorescence of the invading/migrating cells in a fluorescent plate reader. The VEGF-induced migration was calculated by subtracting the migration that occurred when only basal medium was placed in the lower chamber of the wells.
# (§1) Serum-starved HUVECs were placed, 100,000 cells per well, into the upper chambers of BD fibronectin-coated FluoroBlok 24-well insert plates. […] After 22 hours, quantitation of cell migration/invasion was achieved by post-labeling cells in the insert plates with a fluorescent dye and measuring the fluorescence of the invading/migrating cells in a fluorescent plate reader. The VEGF-induced migration was calculated for each experimental condition by subtracting the amount of migration that occurred when only basal medium was added to the lower chamber of the wells.
# as §1, with “reader.” for “reader. The”, “observed in” for “that occurred when only basal medium was added to”, “absence” for “lower chamber”, “VEGF.” for “the wells.”
# as §1, with “VEGF-stimulated” for “The VEGF-induced”, “derived” for “calculated for each experimental condition”, “basal migration measured in the absence” for “amount”, “VEGF.” for “migration that occurred when only basal medium was added to the lower chamber of the wells.”
# Serum-starved HUVECs were placed, 100,000 cells per well, into the upper chambers of BD fibronectin-coated FluoroBlok 24-well insert plates. […] After 22 hours, quantitation of cell migration/invasion was achieved by post-labeling cells in the insert plates with a fluorescent dye and measuring the fluorescence of the invading/migrating cells in a fluorescent plate reader.
# murine KDR-Fc = target: T1, murine KDR-Fc (Mus musculus, UniProt P35918); assay: BIAcore kinetic analysis of binding to murine KDR-Fc
# T1 construct: purchased R & D Systems (Minneapolis, Minn.) 443-KD-050
# Protocol: Three densities of recombinant murine KDR-Fc were cross-linked to the dextran surface of a CM5 sensor chip by the standard amine coupling procedure (0.5 mg/mL solution diluted 1:100 or 1:40 with 50 mM acetate, pH 6.0). Flow cell 1 was activated and then blocked to serve as a reference subtraction.
# All samples were injected in duplicate. For association, peptides were injected at 30 μL/min for 3 minutes using the kinject program. Following a 10 minute dissociation, any remaining peptide was stripped from the rmKDR-Fc surface with a quickinject of 50 mM NaOH+1 M NaCl for 12 s at 75 μL/min.
# Sensorgrams were analyzed using the simultaneous ka/kd fitting program in the BIAevaluation software 3.1.
# KDR [2] = target: T2, KDR (Homo sapiens, UniProt P35968); assay: SPR analysis of dimer affinity for KDR; type: binding
# Target sequence in this assay (P35968 20-1356, species assumed): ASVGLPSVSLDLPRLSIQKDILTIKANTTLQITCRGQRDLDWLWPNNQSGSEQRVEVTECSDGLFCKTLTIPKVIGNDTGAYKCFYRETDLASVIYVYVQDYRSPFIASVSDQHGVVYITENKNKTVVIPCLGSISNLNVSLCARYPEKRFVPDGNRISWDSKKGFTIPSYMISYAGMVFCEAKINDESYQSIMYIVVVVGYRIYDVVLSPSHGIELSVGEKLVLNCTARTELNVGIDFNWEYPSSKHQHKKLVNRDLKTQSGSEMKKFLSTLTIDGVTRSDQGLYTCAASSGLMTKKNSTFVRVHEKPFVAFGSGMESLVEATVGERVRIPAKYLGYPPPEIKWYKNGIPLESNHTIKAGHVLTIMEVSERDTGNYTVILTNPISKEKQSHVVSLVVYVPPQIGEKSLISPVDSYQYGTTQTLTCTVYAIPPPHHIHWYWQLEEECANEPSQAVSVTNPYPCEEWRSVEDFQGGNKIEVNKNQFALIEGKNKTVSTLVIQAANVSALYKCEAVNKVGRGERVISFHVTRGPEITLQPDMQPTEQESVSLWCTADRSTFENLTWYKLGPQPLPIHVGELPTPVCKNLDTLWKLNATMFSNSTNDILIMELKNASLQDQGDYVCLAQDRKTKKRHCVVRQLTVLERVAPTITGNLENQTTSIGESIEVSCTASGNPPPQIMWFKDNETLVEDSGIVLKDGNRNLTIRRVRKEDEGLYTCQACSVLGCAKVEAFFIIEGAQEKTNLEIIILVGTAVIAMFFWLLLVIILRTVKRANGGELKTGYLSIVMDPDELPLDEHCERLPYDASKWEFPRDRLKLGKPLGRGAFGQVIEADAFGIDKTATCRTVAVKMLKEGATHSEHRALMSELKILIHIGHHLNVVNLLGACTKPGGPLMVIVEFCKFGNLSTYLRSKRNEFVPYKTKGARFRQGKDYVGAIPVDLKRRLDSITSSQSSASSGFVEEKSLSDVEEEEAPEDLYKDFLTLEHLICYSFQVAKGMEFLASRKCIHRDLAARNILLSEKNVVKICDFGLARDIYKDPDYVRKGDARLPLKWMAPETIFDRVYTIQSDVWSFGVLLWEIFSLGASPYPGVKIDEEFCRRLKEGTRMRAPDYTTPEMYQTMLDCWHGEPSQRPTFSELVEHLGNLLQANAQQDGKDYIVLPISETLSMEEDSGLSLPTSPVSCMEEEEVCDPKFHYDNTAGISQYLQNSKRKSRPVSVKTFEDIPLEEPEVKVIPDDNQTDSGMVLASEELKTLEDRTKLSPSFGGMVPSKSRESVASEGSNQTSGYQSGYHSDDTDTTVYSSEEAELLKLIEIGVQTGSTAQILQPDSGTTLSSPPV
# KDR [3] = target: T2, KDR; assay: Inhibition of VEGF-induced KDR receptor activation (phosphorylation) in HUVECs; type: cell-based; design: host or cells: HUVEC
# Target sequence in this assay (P35968 20-1356): as the sequence (P35968 20-1356, species assumed) above
# Protocol: In some cases, a neutralizing anti-KDR antibody (Catalog #AF357, R&D Systems) was used as a positive control inhibitor of activation. In such cases, the antibody was pre-incubated with the test cells for 30 min at 37° C. prior to the addition of fresh medium containing both VEGF and the antibody. After incubating the dishes 5 min. in a 37° C. tissue culture incubator they were washed three times with ice-cold D-PBS containing calcium and magnesium and placed on ice without removing the last 10 mL of Delbecco's phosphate buffered saline (D-PBS). […] Another 0.5 mL of lysis buffer was used to rinse out the first dish then transferred to the second dish, which was then also scraped and dispersed. The pooled lysate from the two dishes was transferred to a 1.5 mL Eppindorf tube. The above procedure was repeated for each of the controls and test samples (KDR-binding peptides), one at a time. The lysates were stored on ice until all the samples had been processed. At this point samples were either stored at −70° C. or processed to the end of the assay without interruption.
# The next day 40 μl of protein A-sepharose beads were added to the tubes that were then incubated 4 C for 1 hr. on a rotator. […] After cooling, the beads in each tube were pelleted by centrifuging and the supernatants containing the immunoprecipitated KDR were transferred to new tubes and used immediately or frozen and stored at −70 C for later analysis.
# Detection of phosphorylated KDR as well as total KDR in the immunoprecipitates was carried out by immunoblot analysis.
# The blots were first probed with an anti-phosphotyrosine antibody (Transduction Labs, Catalog #P11120), diluted 1:200 in 5% Blotto-TBS with 0.1% Tween 20 added for 2 hr. at room temp. […]
# After 5 min of treatment, lysates were prepared from each set of dishes. KDR was immunoprecipitated from the lysates was analyzed sequentially by immunoblotting for phosphorylation with an anti-phosphotyrosine antibody, and for total KDR with an anti-KDR antibody (to control for sample loading).
# PC3 cell tumors = conditions: 500 microcuries of Lu-labeled D13 i.v., 18 days
# Protocol: PC3 cells from ATCC, grown as recommended by the supplier, were injected subcutaneously between the shoulder blades of nude mice. When their tumors reached 100-400 mm^3, twelve mice were injected i.v. with 500 microcuries of Lu-labeled D13 and their growth monitored for an additional 18 days. Mice were sacrificed if they lost 20% or more of their body weight or their tumors exceeded 2000 mm^3. Tumor growth in the treated mice was compared with the average tumor growth in 37 untreated nude mice implanted with PC3 tumors.
# [4] = test system: VEGF-induced peritoneal vascular permeability; assay: Blocking VEGF-enhanced peritoneal vascular permeability (Evan's Blue); type: in vivo, mice; conditions: 20 μM with […] VEGF165 i.p.
# Protocol: Male balb/c nu/nu mice were injected intraperitoneally with 2 mL vehicle (1% bovine serum albumin in 95% saline/5% DMSO), vehicle+1.2 nM VEGF165, or vehicle+1.2 nM VEGF165+20 μM D10. Immediately after, the mice were injected with Evan's Blue Dye (0.5% in saline, 4 mL/kg) i.v. via their tail veins. After 60 min, mice were sacrificed by CO2 asphyxiation and the peritoneal fluid was retrieved. After centrifuging the samples briefly, the absorbance at 590 nm was measured for each.
# [5] = vs. 2700RU murine KDR-Fc surface
# [6] = vs. 5000RU murine KDR-Fc surface
# T1 sequence (P35918 with tags, fused parts or gaps limits assumed): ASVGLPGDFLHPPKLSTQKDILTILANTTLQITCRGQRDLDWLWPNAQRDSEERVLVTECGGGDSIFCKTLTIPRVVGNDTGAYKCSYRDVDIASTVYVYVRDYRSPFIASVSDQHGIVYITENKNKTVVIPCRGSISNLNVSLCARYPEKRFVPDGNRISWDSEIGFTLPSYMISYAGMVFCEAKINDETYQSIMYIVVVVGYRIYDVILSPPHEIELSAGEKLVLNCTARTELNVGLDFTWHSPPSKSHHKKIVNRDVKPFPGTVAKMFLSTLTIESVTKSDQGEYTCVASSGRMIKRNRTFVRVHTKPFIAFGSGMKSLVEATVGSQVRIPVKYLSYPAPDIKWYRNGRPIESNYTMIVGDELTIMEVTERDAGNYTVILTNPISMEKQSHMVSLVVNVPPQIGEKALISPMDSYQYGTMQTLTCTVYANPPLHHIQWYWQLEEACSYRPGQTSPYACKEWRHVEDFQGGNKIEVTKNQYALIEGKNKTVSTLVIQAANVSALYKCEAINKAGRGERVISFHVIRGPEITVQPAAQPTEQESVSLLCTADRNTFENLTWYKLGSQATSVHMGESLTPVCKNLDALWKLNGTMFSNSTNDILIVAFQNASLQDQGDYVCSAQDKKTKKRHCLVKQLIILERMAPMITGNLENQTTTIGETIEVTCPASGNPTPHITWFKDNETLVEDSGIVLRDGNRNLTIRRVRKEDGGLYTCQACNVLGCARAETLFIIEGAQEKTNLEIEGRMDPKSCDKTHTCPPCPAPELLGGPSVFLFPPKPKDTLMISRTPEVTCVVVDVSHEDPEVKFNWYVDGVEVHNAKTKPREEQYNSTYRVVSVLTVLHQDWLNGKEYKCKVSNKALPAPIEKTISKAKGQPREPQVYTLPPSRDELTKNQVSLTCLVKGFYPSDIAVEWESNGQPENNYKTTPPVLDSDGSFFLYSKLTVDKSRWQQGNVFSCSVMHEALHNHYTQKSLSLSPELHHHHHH
substance,measurement,setting,value
Ac-AGPTWCEDDWYYCWLFGTGGGK (SEQ ID NO:277)[(Biotin-JJK-(O═)C(CH2)3C(═O)-JJ-NH(CH2)4—(S)—CH((Ac-VCWEDSWGGEVCFRYDPGGGK (SEQ ID NO:337))-NH)CONH2]—NH2 [D1],VEGF-stimulated endothelial cell migration blocked,[1]; 5 nM,84%
same,VEGF-stimulated endothelial cell migration blocked,[1]; 25 nM,almost completely blocked
same,Inhibition of VEGF-stimulated migration,[1]; 50 nM,completely blocked
same,Effect on serum-induced migration,[1]; serum (5% FBS) used in place of VEGF,not significantly diminished
same,Kd1,murine KDR-Fc; [5],0.0139 s⁻¹
same,ka1,murine KDR-Fc; [5],794000 M⁻¹ s⁻¹
same,ka2 (1/RUs),murine KDR-Fc; [5],3.31E−04 1/RUs
same,kd2,murine KDR-Fc; [5],0.000596 s⁻¹
same,Kd1,murine KDR-Fc; [6],0.00888 s⁻¹
same,ka1,murine KDR-Fc; [6],554000 M⁻¹ s⁻¹
same,ka2 (1/RUs),murine KDR-Fc; [6],1.17E−04 1/RUs
same,kd2,murine KDR-Fc; [6],0.000457 s⁻¹
same,Fold higher affinity for KDR than D2 (by SPR analysis),KDR [2],10 fold
same,Fold lower IC50 than D2 in the activation assay,KDR [3],at least 100 fold
same,Block of VEGF-induced phosphorylation of KDR,KDR [3]; 1 nM,More than half
same,Block of VEGF-induced phosphorylation of KDR,KDR [3]; 10 nM,completely block
Ac-AGPTWCEDDWYYCWLFGTGGGK (SEQ ID NO:277){Ac-VCWEDSWGGEVCFRYDPGGGK (SEQ ID NO:337)[JJ-Glut-K(BOA)]—NH2}—NH2 [D13],Treated mice with significant or complete tumor growth delay,PC3 cell tumors,6 of the 12
Ac-AGPTWCEDDWYYCWLFGTGGGK (SEQ ID NO:277){[Ac-GDSRVCWEDSWGGEVCFRYDPGGGK (SEQ ID NO:294) (JJ-Glut-NH(CH2)4—(S)—CH(PnAO6-Glut-NH) (C═O—)]—NH2}—NH2 [D10],Block of VEGF-increased dye leakage into the peritoneum,[4],substantially blocked
